Experimental data taken from patent US20130089568A1, “HAIR GROWTH STIMULATOR BASED ON ECKLONIA CAVA EXTRACT, PREPARATION METHOD THEREOF, AND COSMETIC COMPOSITION CONTAINING THE SAME” (priority 2011, published 2013).

What was measured:
Assay type in all cases: cell-based
[1] = system: hair-related cells; assay: Test of isolated active substances using hair-related cells in an in vitro system
Description: The 7′-fluoroeckol compound is disclosed in Korean Patent Application No. 10-2011-0000141. The present invention aims to find a dioxinodehydroeckol compound and an Ecklonia cava extract using an extraction method capable of improving hair growth effects.

[2] = system: human follicle dermal papilla cells; assay: Cell viability of human follicle dermal papilla cells (MTT assay)
Description: The cell viability of human follicle dermal papilla cells were measured using a 3-(4,5-dimethylthiazole-2-yl)-2,5-diphenyl-tetrazolium bromide [MTT] assay.
Specifically, 100 μL of cells were dispensed into each well of 96-well plates at a concentration of 1×10^6 cells/ml and cultured for 24 hours. A sample was prepared in a medium free of FBS and 1% penicillin/streptomycin at various concentrations, and the cells was treated with the sample and incubated for 24 hours. The cells were treated with an MTT solution (5 mg/mL) for 3 hours, and then the MTT was reduced and the medium was carefully removed such that the produced formazan was not removed. Then, 100 μL of dimethyl sulfoxide (DMSO) was dispensed into each well, and after 30 minutes, the absorbance at 570 nm was measured.

[3] = system: human follicle dermal papilla cells; assay: Protein expression test (Western blotting) in human follicle dermal papilla cells; settings: 0.1 μM, 24 hours
Description: (§1) Human follicle dermal papilla cells were purchased from Promo Cell (Heidelberg, Germany). The cells were cultured in a ready-to-use HFDPC medium composed of a basal medium, FCS (fetal calf serum) and a supplement kit Promo Cell (Heidelberg, Germany) containing basal FGF and insulin. For subculture, a kit containing HBSS (HEPES buffered saline), trypsin/EDTA solution and neutralizing solution (Promo Cell, Heidelberg, Germany) was used. Human follicle dermal papilla cells at passages 4 to 6 were used in the test and cultured in a T-25 flask containing 5 ml of medium under the conditions of 37° C. and 5% CO2.
In order to examine the mechanisms of action of the purified extract of Ecklonia cava and the dioxinodehydroeckol compound on the proliferation of human follicle dermal papilla cells, Western blotting was carried out according to standard protocol.
Specifically, the cells were seeded into a 6-well medium together with a serum-free medium and cultured for 24 hours (1.0×10^6 cells/well). Then, the medium was replaced with a fresh medium, and the cells were treated with various concentrations of a sample for 1-24 hours. […] The cells were cultured with horseradish-peroxidase-conjugated secondary antibody at room temperature, and then immune-reactive protein was detected using an enhanced chemiluminescence (ECL) analysis kit according to the manufacturer's instruction. […]

[4] = system: human follicle dermal papilla cells; assay: mRNA expression (RT-PCR) in human follicle dermal papilla cells; settings: 0.1 μM, 24 hours
Description: as §1
In order to examine the mechanisms of action of the purified extract of Ecklonia cava and the dioxinodehydroeckol compound on the proliferation of human follicle dermal papilla cells, reverse transcription polymerase chain reaction (RT-PCR) was performed according to a standard protocol. Specifically, the cells were seeded into a 6-well plate together with a serum-free medium and cultured for 24 hours (1.0×10^6 cells/well). Then, the medium was replaced with a fresh medium, and the cells were treated with various concentrations of a test material for 24 hours and then lysed with TRIzol® (Invitrogen).

[5] = system: human hair tissue; assay: Evaluation of hair growth by culture of human hair tissue; settings: 0.1 μM
Description: Human hair tissue provided from Immunobiology Laboratory, Kyungpook National University, was used in the test and cultured in a CO2 incubator at 37° C. with Williams E media (Sigma, USA) containing 2 mM L-glutamin, 100 U/ml streptomycin and 10 ng/ml hydrocortisone. The tissue was cultured with various concentrations of the test material for 6 days, and the length of the hair tissue was measured at days 3 and 6.

| Molecule | influence on hair-related cells [1] | cell viability ([2]; 1 μM, listed as minoidil) | viability at 1 µM ([2]; Homo sapiens, 1 μM) | viability at 0.1 µM ([2]; Homo sapiens, 0.1 μM, read-out: highest cell viability) | viability of the human follicle dermal papilla cells compared to untreated control ([2]; concentration range of 0.001-5 μM, FIG. 1c) | expression level of BMP2/4 protein, increase compared to untreated control [3] | expression level of β-catenin protein, increase compared to untreated control [3] | expression level of ALP mRNA, increase [4] | expression level of VCAN mRNA, increase [4] | expression level of VEGF mRNA, increase [4] | increased hair length ([5]; day 3) | increased hair length ([5]; day 6) |
| --- | --- | --- | --- | --- | --- | --- | --- | --- | --- | --- | --- | --- |
| 7′-fluoroeckol [7′-fluoroeckol compound] | specifically influence hair-related cells |  |  |  |  |  |  |  |  |  |  |  |
| Nc1cc(N2CCCCC2)nc(N)[n+]1[O-] [Minoxidil, reference compound] |  | 121% | 119% |  |  |  |  |  |  |  |  |  |
| Oc1cc(O)c2oc3cc(O)c4oc5cc(O)cc(O)c5oc4c3oc2c1 [dioxinodehydroeckol] | specifically influence hair-related cells |  |  | 142% | significantly increased | 1.8 times | 2.0 times | 1.5 times | 1.8 times | 1.3 times | 0.84 mm | 1.43 mm |
